Ten compounds from ChEMBL document CHEMBL1201862, “PubChem BioAssay data set” (2004) can be followed below.

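Growth conditions: 96-well plates. Treatment: test compound, 48 hours, 5 concentrations. Analysis: linear interpolation between bracketing concentrations; unreached endpoints set to highest concentration. GI50 is the concentration that inhibits growth by half.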 The source made the active and inactive calls. Rule as the data show it: active = GI50 up to about 1.1 µM and inactive = higher.

Experiment in all cases: NCI-60 cell line screen, 48 h
The test system of assay [1] is CCRF-CEM.
The test system of assay [2] is 786-0.
The subject of assay [3] is HCC 2998.
The test system of assay [4] is UACC-257.
Assay [5] relates to CAKI-1.
For assay [6], the system named is SK-OV-3.
Assay [7] has as its system TK-10.
The subject of assay [8] is BT-549.
Assay [9] relates to EKVX.
Assay [10] deals with SNB-19.
Assay [11] concerns HT-29.
Assay [12] has as its system KM12.
Assay [13] has as its system LOX IMVI.
The subject of assay [14] is HCT-116.
The test system of assay [15] is SK-MEL-5.
Assay [16] relates to UACC-62.
In assay [17] the test system is SF-539.
For assay [18], the system named is MCF7.
The test system of assay [19] is NCI-H522.
Assay [20] concerns SNB-75.

As to `CCCCC(Sc1cc(Cl)c(C)cc1S(=O)(=O)Nc1nc(N)n[nH]1)C(=O)OC` (centres undefined), the GI50 in assay [1], in assay [2], in assay [3], in assay [4], in assay [5] and in assay [6] was > 10 µM (inactive) throughout. Besides, the GI50 in assay [7], in [8], in [9], in [10], in [11] and in [12] was > 10 µM (inactive) each time. Besides, the GI50 in assay [13], in assay [14], in assay [15], in assay [16], in assay [17] and in assay [18] was > 10 µM (inactive) throughout. In addition, the GI50 in assay [19] and in [20] was > 10 µM (inactive) in each case.
Turning to `O=[N+]([O-])C[C@@]12O[C@]3(O)C4C5CC(C6C5C3C61)C42` (some centres undefined), the GI50 in assay [1] was > 100 µM (inactive); in assay [2], > 100 µM (inactive); in [3] it was < 0.01 µM (active); in assay [4], > 100 µM (inactive); in assay [5] it was > 100 µM (inactive); in assay [6], > 100 µM (inactive). The GI50 in [7], in assay [8], in [9], in assay [10], in [11] and in [12] was > 100 µM (inactive) throughout. Also, the GI50 in [13], in assay [14], in assay [15], in [16], in [17] and in assay [18] was > 100 µM (inactive) throughout. Moreover, the GI50 in assay [19] and in [20] was > 100 µM (inactive) throughout.
With `CC(C)CCNC(=O)c1ccc(CNC(=O)/C=C/c2csc(-c3ccccc3)n2)cc1`, the GI50 in [1] is > 100 µM (inactive); in assay [2], 32.7 µM (inactive); in assay [3], > 100 µM (inactive); in assay [4] it was 96.8 µM (inactive); in assay [5], 18.7 µM (inactive); in assay [6], 40 µM (inactive). Further, the GI50 is 53.2 µM (inactive) in assay [7]; 78.5 µM (inactive) in assay [8]; > 100 µM (inactive) in assay [9]; 17.8 µM (inactive) in assay [10]; 31.1 µM (inactive) in assay [11]; > 100 µM (inactive) in assay [12]. The GI50 in assay [13] was > 100 µM (inactive); in [14] it was 46.7 µM (inactive); in assay [15], 29.5 µM (inactive); in assay [16], > 100 µM (inactive); in [17], > 100 µM (inactive); in assay [18], > 100 µM (inactive). The GI50 in assay [19] was 41 µM (inactive); in assay [20], 14.4 µM (inactive).
As for `CCCCc1ccc(Nc2nc(Cl)c3ncn(COCCOC(C)=O)c3n2)cc1`, the GI50 in [1] was 35.6 µM (inactive); in assay [2] it was 16 µM (inactive); in assay [3], 11.9 µM (inactive); in assay [4], 19.8 µM (inactive); in assay [5], 1.89 µM (inactive); in assay [6], 19.6 µM (inactive). Also, the GI50 in assay [7] is 20.3 µM (inactive); in assay [8], 16.5 µM (inactive); in assay [9], 6.19 µM (inactive); in assay [10], 19.9 µM (inactive); in assay [11], 17.3 µM (inactive); in assay [12], 20.4 µM (inactive). Besides, the GI50 in assay [13] is 14.8 µM (inactive); in assay [14], 17.6 µM (inactive); in [15], 16.7 µM (inactive); in [16] it was 17.3 µM (inactive); in assay [17] it was 19.5 µM (inactive); in assay [18] it was 27.4 µM (inactive). In addition, the GI50 is 13.6 µM (inactive) in [19] and 24.5 µM (inactive) in assay [20].
Consider `C1=CCC[C@@H]2CN3CCCC/C=C\CCCC[C@H]4C[C@H](CN(CCCCCCCC1)C4)[C@H]2CC3`, for which the GI50 in assay [1] is 12.4 µM (inactive); in assay [2], 8.67 µM (inactive); in assay [3], 7.59 µM (inactive); in assay [4], 10.2 µM (inactive); in [5] it was 9.23 µM (inactive); in assay [6], > 50 µM (inactive). Further, the GI50 in assay [7] was 8.83 µM (inactive); in [8] it was 12.9 µM (inactive); in [9], 11.3 µM (inactive); in assay [10] it was 10.9 µM (inactive); in assay [11], 10.9 µM (inactive); in assay [12], 7.91 µM (inactive). Further, the GI50 in [13] is 8.59 µM (inactive); in assay [14], 9.12 µM (inactive); in assay [15], 9.27 µM (inactive); in assay [16] it was 9.46 µM (inactive); in assay [17] it was 7.98 µM (inactive); in [18], 9.18 µM (inactive). Further, the GI50 was 9.42 µM (inactive) in assay [19] and 8.95 µM (inactive) in assay [20].
Turning to `C[n+]1c(-c2ccccc2)cc2/c(=C\c3ccc([N+](=O)[O-])cc3)c3ccccc3n21`, the GI50 was 0.692 µM (active) in assay [1]; 1.52 µM (inactive) in [2]; 11.3 µM (inactive) in [3]; 4.99 µM (inactive) in [4]; 15.8 µM (inactive) in assay [5]; 4.8 µM (inactive) in assay [6]. The GI50 in assay [7] is 9.06 µM (inactive); in assay [8], 0.281 µM (active); in assay [9], 7.29 µM (inactive); in [10], 3.06 µM (inactive); in [11], 0.957 µM (active); in [12], 3.29 µM (inactive). Moreover, the GI50 in [13] is 2.63 µM (inactive); in [14], 1.02 µM (active); in assay [15], 1.95 µM (inactive); in [16] it was 6.35 µM (inactive); in assay [17], 0.615 µM (active); in assay [18] it was 2.1 µM (inactive). In addition, the values for the GI50 in [19] and in assay [20] were 0.385 µM (active) and 3.18 µM (inactive), respectively.
For `CN1CCN(C(=O)CCNC(=O)Cc2ccc(C(=O)c3ccccc3)cc2)CC1`, the GI50 in assay [1] is 94.8 µM (inactive); in [2] it was > 100 µM (inactive); in assay [3], 50 µM (inactive); in assay [4], > 100 µM (inactive); in [5] it was > 100 µM (inactive); in [6], > 100 µM (inactive). In addition, the GI50 in assay [7] was > 100 µM (inactive); in [8] it was 64.3 µM (inactive); in assay [9] it was > 100 µM (inactive); in assay [10], > 100 µM (inactive); in assay [11], > 100 µM (inactive); in assay [12], 48.6 µM (inactive). Besides, the GI50 in assay [13] is > 100 µM (inactive); in [14], > 100 µM (inactive); in assay [15] it was 71.6 µM (inactive); in assay [16], > 100 µM (inactive); in assay [17] it was > 100 µM (inactive); in assay [18] it was > 100 µM (inactive). Further, the GI50 in assay [19] and in assay [20] was > 100 µM (inactive) each time.
Regarding `COC(=O)[C@@]12CCCC(=O)[C@@H]1[C@H]1CCCC[C@H]12`, the GI50 was 59.2 µM (inactive) in assay [1]; > 100 µM (inactive) in [2]; > 100 µM (inactive) in [3]; > 100 µM (inactive) in assay [4]; > 100 µM (inactive) in assay [5]; > 100 µM (inactive) in [6]. For the same compound, the GI50 in assay [7], in [8], in assay [9], in assay [10], in assay [11] and in assay [12] was > 100 µM (inactive) in each case. For the same compound, the GI50 in assay [13], in [14], in assay [15], in assay [16], in [17] and in [18] was > 100 µM (inactive) each time. Further, the GI50 in assay [19] and in [20] was > 100 µM (inactive) each time.
With `CC(=O)OCC1=CC2OC(=O)C3=COC(OC4OC(CO)C(O)C(O)C4O)C1C32` (centres undefined), the GI50 in assay [1], in assay [2], in [3], in assay [4], in assay [5] and in assay [6] was > 100 µM (inactive) each time. In addition, the GI50 in assay [7], in assay [8], in [9], in assay [10], in assay [11] and in [12] was > 100 µM (inactive) in each case. The GI50 in assay [13], in assay [14], in assay [15], in [16], in assay [17] and in [18] was > 100 µM (inactive) in each case. In addition, the GI50 in assay [19] and in assay [20] was > 100 µM (inactive) each time.
As to `CCOc1ccc(/C=N/[N+](C)(C)C)cc1OCC`, the GI50 in [1], in [2], in assay [3], in assay [4], in assay [5] and in assay [6] was > 10 µM (inactive) in each case. Further, the GI50 in [7], in assay [8], in [10], in [11], in assay [12] and in assay [13] was > 10 µM (inactive) each time. The GI50 in [14], in [15], in assay [16], in assay [17], in assay [18] and in assay [19] was > 10 µM (inactive) in each case. For the same compound, the GI50 in assay [20] is > 10 µM (inactive).
